Measurements published in ChEMBL document CHEMBL1201862, “PubChem BioAssay data set” (2004).
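96-well plates; 48 h exposure; 5 concentrations. Endpoints by linear interpolation between flanking doses. Not reached: highest tested concentration assigned. GI50 marks 50% less growth.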 The source made the active and inactive calls. Cut-off read from the data, not from the text of the source: active = GI50 up to about 1.1 µM and inactive = higher.

Tests used:
Assay in all cases: NCI tumour cell line growth inhibition, 48 h
786-0 = tested on: 786-0
OVCAR-3 = tested on: OVCAR-3
HCT-116 = tested on: HCT-116
Malme-3M = tested on: Malme-3M
SW-620 = tested on: SW-620
T47D = tested on: T47D
ACHN = tested on: ACHN
HT-29 = tested on: HT-29
HCC 2998 = tested on: HCC 2998
CCRF-CEM = tested on: CCRF-CEM
A498 = tested on: A498
RXF 393 = tested on: RXF 393
SK-MEL-2 = tested on: SK-MEL-2
MDA-N = tested on: MDA-N
OVCAR-8 = tested on: OVCAR-8
HCT-15 = tested on: HCT-15
IGROV-1 = tested on: IGROV-1
Hs-578T = tested on: Hs-578T
SNB-75 = tested on: SNB-75
MCF7 = tested on: MCF7

SMILES	GI50 (786-0)	GI50 (OVCAR-3)	GI50 (HCT-116)	GI50 (Malme-3M)	GI50 (SW-620)	GI50 (T47D)	GI50 (ACHN)	GI50 (HT-29)	GI50 (HCC 2998)	GI50 (CCRF-CEM)	GI50 (A498)	GI50 (RXF 393)	GI50 (SK-MEL-2)	GI50 (MDA-N)	GI50 (OVCAR-8)	GI50 (HCT-15)	GI50 (IGROV-1)	GI50 (Hs-578T)	GI50 (SNB-75)	GI50 (MCF7)
O=C(NC(O)(C(F)(F)F)C(F)(F)F)c1ccccc1	> 100 µM (inactive)	> 100 µM (inactive)	> 100 µM (inactive)	> 100 µM (inactive)	> 100 µM (inactive)	> 100 µM (inactive)	> 100 µM (inactive)	> 100 µM (inactive)	> 100 µM (inactive)	> 100 µM (inactive)	> 100 µM (inactive)	> 100 µM (inactive)	> 100 µM (inactive)	> 100 µM (inactive)	> 100 µM (inactive)	> 100 µM	> 100 µM (inactive)	> 100 µM (inactive)	> 100 µM (inactive)	> 100 µM (inactive)
C/C(=N\NC(=S)NCCCNC(=S)N/N=C(\C)c1ccccn1)c1ccccn1	0.617 µM (active)	2.95 µM (inactive)	2.88 µM (inactive)	2.42 µM (inactive)	22.5 µM (inactive)	3.51 µM (inactive)	1.4 µM (inactive)	2 µM (inactive)	5.71 µM (inactive)	1.16 µM (inactive)	4.97 µM (inactive)	3.03 µM (inactive)	2.06 µM (inactive)	9.27 µM (inactive)	1.71 µM (inactive)	1.3 µM	3.9 µM (inactive)	> 47.6 µM (inactive)	2.95 µM (inactive)	3.34 µM (inactive)
O=C(OCc1ccccc1)N(CCCCN(CCCNCc1ccccc1)C(=O)OCc1ccccc1)CCCNCc1ccccc1	0.289 µM (active)	1.39 µM (inactive)	0.249 µM (active)	1.71 µM (inactive)	0.221 µM (active)	1.98 µM (inactive)	1.51 µM (inactive)	0.24 µM (active)	0.462 µM (active)	0.242 µM (active)	0.889 µM (active)	1.63 µM (inactive)	1.36 µM (inactive)	0.288 µM (active)	1.54 µM (inactive)	0.352 µM	0.883 µM (active)	1.31 µM (inactive)	1.43 µM (inactive)	7.76 µM (inactive)
Nc1ccc(S(=O)(=O)Nc2ccc(Nc3c4ccccc4nc4ccccc34)cc2)cc1	0.0413 µM (active)	0.245 µM (active)	0.165 µM (active)	0.0675 µM (active)	0.0485 µM (active)	0.0637 µM (active)	< 0.0114 µM (active)	0.198 µM (active)	0.164 µM (active)	< 0.01 µM (active)	0.0538 µM (active)	0.316 µM (active)	0.769 µM (active)	10.2 µM (inactive)	0.041 µM (active)	0.579 µM	0.769 µM (active)	1.86 µM (inactive)	0.0158 µM (active)	< 0.01 µM (active)
CC1(c2ccc(Cl)cc2)CC(c2ccc(Cl)cc2)=C(C#N)C(=C(C#N)C#N)N1 (stereo not given)	11.1 µM (inactive)	11.3 µM (inactive)	14.6 µM (inactive)	15.7 µM (inactive)	12 µM (inactive)	12.6 µM (inactive)	14.5 µM (inactive)	12.8 µM (inactive)	13.2 µM (inactive)	3.11 µM (inactive)	18.5 µM (inactive)	13.1 µM (inactive)	22.9 µM (inactive)	19 µM (inactive)	14.9 µM (inactive)	15.8 µM	14.7 µM (inactive)	19.9 µM (inactive)	19.4 µM (inactive)	18.9 µM (inactive)
Cn1c2ccccc2n2c3nc4ccccc4nc3c(C#N)c12	93.8 µM (inactive)	> 100 µM (inactive)	53.8 µM (inactive)	> 81.8 µM (inactive)	74.8 µM (inactive)	21.4 µM (inactive)	75.3 µM (inactive)	14.3 µM (inactive)	9.68 µM (inactive)	60 µM (inactive)	6.44 µM (inactive)	> 42.3 µM (inactive)	> 4.65 µM (inactive)	> 100 µM (inactive)	74.1 µM (inactive)	9.29 µM	> 100 µM (inactive)	56 µM (inactive)	> 30.8 µM (inactive)	> 75 µM (inactive)
CCOC(=O)C(C#N)C1=CC(=O)C(=O)c2ccc(O)cc21 (stereo not given)	> 100 µM (inactive)	64 µM (inactive)	55.1 µM (inactive)	47 µM (inactive)	77.4 µM (inactive)	79.4 µM (inactive)	42.3 µM (inactive)	> 100 µM (inactive)	> 100 µM (inactive)	> 100 µM (inactive)	> 100 µM (inactive)	> 100 µM (inactive)	23.2 µM (inactive)	18.5 µM (inactive)	44.7 µM (inactive)	> 100 µM	78 µM (inactive)	17.2 µM (inactive)	51.1 µM (inactive)	> 100 µM (inactive)
COc1ccc2c(c1)c1nn(CCN3CCCCC3)c3ccc4c(=O)n(CCN(C)C)c(=O)n2c4c13	< 0.01 µM (active)	0.0151 µM (active)	< 0.01 µM (active)	0.0619 µM (active)	< 0.01 µM (active)	< 0.0175 µM (active)	< 0.01 µM (active)	< 0.01 µM (active)	< 0.01 µM (active)	< 0.01 µM (active)	< 0.022 µM (active)	< 0.0164 µM (active)	0.04 µM (active)	< 0.0109 µM (active)	< 0.01 µM (active)	< 0.01 µM	< 0.01 µM (active)	< 0.0325 µM (active)	< 0.01 µM (active)	< 0.01 µM (active)
CC1=C(C#N)C2C(=C(C)N1)C(N)=Nc1ccccc12 (stereo not given)	43 µM (inactive)	28.4 µM (inactive)	32.6 µM (inactive)	37.8 µM (inactive)	48.1 µM (inactive)	31.4 µM (inactive)	47.6 µM (inactive)	38.3 µM (inactive)	35.2 µM (inactive)	32.5 µM (inactive)	22.3 µM (inactive)	38 µM (inactive)	81.8 µM (inactive)	43.2 µM (inactive)	55.6 µM (inactive)	85.5 µM	29.9 µM (inactive)	23 µM (inactive)	8.17 µM (inactive)	80.5 µM (inactive)
CC(C)=CC(O)C/C(C)=C/CC/C(C)=C/CCC1(C)C(CCCO)/C(=C(/C)C=O)CCC1(C)O (stereo not given)	35.7 µM (inactive)	86.1 µM (inactive)	40 µM (inactive)	34 µM (inactive)	40.6 µM (inactive)	61.9 µM (inactive)	20.6 µM (inactive)	26.1 µM (inactive)	26.4 µM (inactive)	30.5 µM (inactive)	34.2 µM (inactive)	25.7 µM (inactive)	59.3 µM (inactive)	22.1 µM (inactive)	47 µM (inactive)	46.3 µM	24.8 µM (inactive)	35.6 µM (inactive)	> 100 µM (inactive)	37.4 µM (inactive)
COc1cc(/C=C2\N=C(c3ccccc3)N(c3nc4c(OC)ccc(OC)c4s3)C2=O)cc(OC)c1OC	55 µM (inactive)	> 100 µM (inactive)	66.8 µM (inactive)	> 100 µM (inactive)	49.7 µM (inactive)	32.4 µM (inactive)	> 100 µM (inactive)	> 100 µM (inactive)	> 100 µM (inactive)	31.2 µM (inactive)	> 100 µM (inactive)	85.1 µM (inactive)	> 100 µM (inactive)	35.8 µM (inactive)	86.1 µM (inactive)	95.7 µM	> 100 µM (inactive)	> 100 µM (inactive)	> 100 µM (inactive)	34.3 µM (inactive)
CC[C@@]1(O)C(=O)OCc2c1cc1n(c2=O)Cc2c-1nc1ccccc1c2/C=N/NC(=O)c1ccc(N)cc1	0.0422 µM (active)	0.714 µM (active)	0.1 µM (active)	0.452 µM (active)	0.0796 µM (active)	< 0.01 µM (active)	0.0244 µM (active)	4.68 µM (inactive)	1.12 µM (inactive)	< 0.01 µM (active)	0.33 µM (active)	< 0.0322 µM (active)	5.37 µM (inactive)	0.434 µM (active)	0.0944 µM (active)	2.95 µM	0.279 µM (active)	> 100 µM (inactive)	0.0489 µM (active)	< 0.016 µM (active)
CC(=O)OC/C=C(/CCl)CCC(Br)C(C)(C)Br.CC(=O)OC/C=C(\CCl)CCC(Br)C(C)(C)Br (stereo not given)	> 10 µM (inactive)	> 10 µM (inactive)	> 10 µM (inactive)	> 10 µM (inactive)	> 10 µM (inactive)	> 10 µM (inactive)	> 10 µM (inactive)	> 10 µM (inactive)	> 10 µM (inactive)	> 10 µM (inactive)	> 10 µM (inactive)	> 10 µM (inactive)	> 10 µM (inactive)	> 10 µM (inactive)	> 10 µM (inactive)	> 10 µM	> 10 µM (inactive)	> 10 µM (inactive)	> 10 µM (inactive)	> 10 µM (inactive)
CN(C)/C=N/c1cc(=O)n(C)c(=O)n1C	> 100 µM (inactive)	> 100 µM (inactive)	> 100 µM (inactive)	> 100 µM (inactive)	> 100 µM (inactive)	> 100 µM (inactive)	> 100 µM (inactive)	> 100 µM (inactive)	> 100 µM (inactive)	> 100 µM (inactive)	> 100 µM (inactive)	> 100 µM (inactive)	> 100 µM (inactive)	> 100 µM (inactive)	> 100 µM (inactive)	> 100 µM	> 100 µM (inactive)	> 100 µM (inactive)	> 100 µM (inactive)	> 100 µM (inactive)
